US20120220581A1, “IMIDAZO[1,2-b]PYRIDAZINE DERIVATIVES AND THEIR USE AS PDE10 INHIBITORS” (Janssen-Cilag, S.A., priority 2009, published 2012)
Like-named read-outs stand apart in the source and are kept apart here.

Legend:
[1] = target: T1, Rat recombinant PDE10A (rPDE10A2) (Rattus norvegicus, UniProt Q9QYJ6); experiment: In vitro assay PDE10A (SPA, 3H-cAMP); type: biochemical
T1 construct: inferred from the Ni metal chelate purification; made in house; host or cells: Sf9 insect cells (baculovirus)
T1 sequence (Q9QYJ6 1-794): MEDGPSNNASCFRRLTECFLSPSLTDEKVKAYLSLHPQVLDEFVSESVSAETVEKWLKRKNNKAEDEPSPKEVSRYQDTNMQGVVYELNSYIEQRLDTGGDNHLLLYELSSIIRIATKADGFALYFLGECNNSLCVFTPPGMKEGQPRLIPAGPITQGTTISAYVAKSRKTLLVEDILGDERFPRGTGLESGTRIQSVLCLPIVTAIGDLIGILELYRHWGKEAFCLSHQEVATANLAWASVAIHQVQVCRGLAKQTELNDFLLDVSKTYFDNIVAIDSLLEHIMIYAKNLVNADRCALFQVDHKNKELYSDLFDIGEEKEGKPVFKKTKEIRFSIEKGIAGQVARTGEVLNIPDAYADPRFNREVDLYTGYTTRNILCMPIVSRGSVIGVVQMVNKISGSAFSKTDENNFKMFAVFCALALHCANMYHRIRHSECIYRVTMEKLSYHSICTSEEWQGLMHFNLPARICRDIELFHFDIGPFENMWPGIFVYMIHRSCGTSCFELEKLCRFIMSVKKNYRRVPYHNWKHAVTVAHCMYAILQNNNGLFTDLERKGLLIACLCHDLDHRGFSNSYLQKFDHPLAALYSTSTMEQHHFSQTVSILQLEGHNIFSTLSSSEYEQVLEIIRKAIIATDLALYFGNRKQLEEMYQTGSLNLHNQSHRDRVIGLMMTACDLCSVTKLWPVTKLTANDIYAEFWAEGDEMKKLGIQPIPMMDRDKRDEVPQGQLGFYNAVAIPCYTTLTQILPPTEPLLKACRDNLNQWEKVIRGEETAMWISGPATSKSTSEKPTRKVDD
Method in brief: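 Scintillation proximity read-out (cpm) of 3H-cAMP hydrolysis after 60 min at room temperature, with enzyme-free blanks and 1% DMSO controls. Enzyme was Sf9-expressed, Ni-sepharose-purified rat rPDE10A2; substrate 60 nM cAMP with tracer, buffer Tris pH 7.8 containing MgCl2 and EGTA.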

PDE4D3 = PDE4D3 (Homo sapiens, UniProt Q08499); experiment: In vitro PDE selectivity assay (SPA), PDE4D3; type: biochemical; details: hPDE4D3; read-out: PDE 4D3 (expressed as pIC50) (converted)
Chain of PDE4D3 (Q08499 1-673 isoform Q08499-2): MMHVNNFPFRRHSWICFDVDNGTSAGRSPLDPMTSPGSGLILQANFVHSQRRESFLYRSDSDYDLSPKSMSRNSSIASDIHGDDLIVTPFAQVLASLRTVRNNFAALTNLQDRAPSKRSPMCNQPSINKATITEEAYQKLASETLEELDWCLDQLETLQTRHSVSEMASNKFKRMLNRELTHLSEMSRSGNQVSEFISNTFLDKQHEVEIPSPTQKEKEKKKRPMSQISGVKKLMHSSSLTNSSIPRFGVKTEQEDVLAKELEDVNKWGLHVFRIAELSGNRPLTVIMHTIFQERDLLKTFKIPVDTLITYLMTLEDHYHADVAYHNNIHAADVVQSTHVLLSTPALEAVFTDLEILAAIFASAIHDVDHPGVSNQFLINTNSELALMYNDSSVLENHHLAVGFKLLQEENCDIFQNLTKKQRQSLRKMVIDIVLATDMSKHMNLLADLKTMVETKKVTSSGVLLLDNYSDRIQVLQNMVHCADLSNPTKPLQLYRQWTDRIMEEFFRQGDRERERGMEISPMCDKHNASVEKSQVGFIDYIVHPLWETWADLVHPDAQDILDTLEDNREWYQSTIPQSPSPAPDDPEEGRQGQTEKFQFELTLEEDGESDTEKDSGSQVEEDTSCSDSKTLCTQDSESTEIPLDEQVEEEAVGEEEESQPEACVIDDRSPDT
Protocol: (§1) Rat recombinant PDE10A (rPDE10A2) was expressed in Sf9 cells using a recombinant rPDE10A baculovirus construct. Cells were harvested after 48 h of infection and the rPDE10A protein was purified by metal chelate chromatography on Ni-sepharose 6FF. Tested compounds were dissolved and diluted in 100% DMSO to a concentration 100 fold of the final concentration in the assay. Compound dilutions (0.4 μl) were added in 384 well plates to 20 μl of incubation buffer (50 mM Tris pH 7.8, 8.3 mM MgCl2, 1.7 mM EGTA). 10 μl of rPDE10A enzyme in incubation buffer was added and the reaction was started by addition of 10 μl substrate to a final concentration of 60 nM cAMP and 0.008 μCi ^3H-cAMP. The reaction was incubated for 60 minutes at room temperature. After incubation, the reaction was stopped with 20 μl of stop solution consisting of 17.8 mg/ml PDE SPA (scintillation proximity assay) beads. After sedimentation of the beads during 30 minutes the radioactivity was measured in a Perkin Elmer Topcount scintillation counter and results were expressed as cpm. For blanc values the enzyme was omitted from the reaction and replaced by incubation buffer. Control values were obtained by addition of a final concentration of 1% DMSO instead of compound. The same assay principle is applied for the measurement of the affinity of the compound for other members of the PDE family with appropriate modifications in incubation buffer, substrate concentration, incubation time and stop solution. An overview of the different protocols is presented in table A. A best fit curve is fitted by a minimum sum of squares method to the plot of % of control value substracted with blanc value versus compound concentration and the half maximal inhibitory concentration (IC50) value is derived from this curve.
(§2) The compounds of the invention are generally selective for PDE10 compared to other PDEs and there are a few that also have affinity for PDE1B1, 4D3 and 5A3.

PDE5A3 = PDE5A3 (Homo sapiens, UniProt O76074); experiment: In vitro PDE selectivity assay (SPA), PDE5A3; type: biochemical; details: hPDE5A3; read-out: PDE 5A3 (expressed as pIC50) (converted)
Protocol: as §1, §2

[2] = target: other members of the PDE family (Homo sapiens, UniProt O00408); experiment: In vitro PDE selectivity assay (SPA), other members of the PDE family (protocols in Table A); type: biochemical; details: hPDE2A; read-out: PDE 2A (expressed as pIC50) (converted)
Chain of other members of the PDE family (Homo sapiens, UniProt O00408) (O00408 whole entry): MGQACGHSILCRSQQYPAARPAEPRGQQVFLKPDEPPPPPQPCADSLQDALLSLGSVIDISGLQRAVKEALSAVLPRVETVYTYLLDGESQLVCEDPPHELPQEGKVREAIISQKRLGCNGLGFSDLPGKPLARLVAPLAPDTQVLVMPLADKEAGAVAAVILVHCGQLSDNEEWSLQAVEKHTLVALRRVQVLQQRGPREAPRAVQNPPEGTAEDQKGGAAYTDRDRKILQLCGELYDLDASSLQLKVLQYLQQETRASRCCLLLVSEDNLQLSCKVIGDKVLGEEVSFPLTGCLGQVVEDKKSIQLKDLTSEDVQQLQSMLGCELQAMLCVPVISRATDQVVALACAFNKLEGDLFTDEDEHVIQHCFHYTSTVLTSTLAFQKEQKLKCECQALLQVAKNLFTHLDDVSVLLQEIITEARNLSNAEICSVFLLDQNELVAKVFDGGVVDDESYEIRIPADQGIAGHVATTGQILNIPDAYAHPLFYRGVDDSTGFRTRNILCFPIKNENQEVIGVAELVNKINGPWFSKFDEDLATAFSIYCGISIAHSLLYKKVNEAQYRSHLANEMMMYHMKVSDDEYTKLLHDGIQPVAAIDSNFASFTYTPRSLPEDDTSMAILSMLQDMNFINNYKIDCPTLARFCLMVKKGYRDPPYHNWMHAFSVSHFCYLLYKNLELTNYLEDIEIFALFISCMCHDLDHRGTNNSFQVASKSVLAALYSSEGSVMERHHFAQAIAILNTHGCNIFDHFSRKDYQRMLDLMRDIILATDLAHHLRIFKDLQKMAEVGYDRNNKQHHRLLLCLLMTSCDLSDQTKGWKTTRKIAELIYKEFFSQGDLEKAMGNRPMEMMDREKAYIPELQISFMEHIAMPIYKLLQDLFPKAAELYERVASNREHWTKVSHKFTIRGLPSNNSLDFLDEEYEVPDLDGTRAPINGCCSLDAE
Protocol: as §1, §2

[3] = target: other members of the PDE family (Homo sapiens, UniProt O76083); experiment: as above; type: biochemical; details: hPDE9A; read-out: PDE 9A (expressed as pIC50) (converted)
Chain of other members of the PDE family (Homo sapiens, UniProt O76083) (O76083 whole entry): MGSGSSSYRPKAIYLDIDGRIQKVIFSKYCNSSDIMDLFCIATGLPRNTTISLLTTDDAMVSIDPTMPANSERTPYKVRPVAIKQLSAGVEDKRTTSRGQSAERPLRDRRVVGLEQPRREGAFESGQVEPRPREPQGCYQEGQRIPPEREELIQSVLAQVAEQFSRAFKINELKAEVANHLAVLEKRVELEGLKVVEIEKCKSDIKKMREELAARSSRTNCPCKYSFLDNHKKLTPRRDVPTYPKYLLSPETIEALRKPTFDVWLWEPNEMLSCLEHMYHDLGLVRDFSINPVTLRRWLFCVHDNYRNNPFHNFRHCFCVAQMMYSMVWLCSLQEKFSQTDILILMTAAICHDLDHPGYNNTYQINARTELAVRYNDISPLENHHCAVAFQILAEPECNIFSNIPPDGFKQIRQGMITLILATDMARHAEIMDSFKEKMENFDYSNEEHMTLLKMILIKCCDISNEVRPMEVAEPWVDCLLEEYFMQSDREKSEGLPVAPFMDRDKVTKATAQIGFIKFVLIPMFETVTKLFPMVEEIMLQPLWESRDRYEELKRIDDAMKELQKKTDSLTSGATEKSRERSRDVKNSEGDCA
Protocol: as §1, §2

[4] = target: other members of the PDE family (Homo sapiens, UniProt Q13946); experiment: as above; type: biochemical; details: hPDE7A1; read-out: PDE 7A (expressed as pIC50) (converted)
Chain of other members of the PDE family (Homo sapiens, UniProt Q13946) (Q13946 whole entry): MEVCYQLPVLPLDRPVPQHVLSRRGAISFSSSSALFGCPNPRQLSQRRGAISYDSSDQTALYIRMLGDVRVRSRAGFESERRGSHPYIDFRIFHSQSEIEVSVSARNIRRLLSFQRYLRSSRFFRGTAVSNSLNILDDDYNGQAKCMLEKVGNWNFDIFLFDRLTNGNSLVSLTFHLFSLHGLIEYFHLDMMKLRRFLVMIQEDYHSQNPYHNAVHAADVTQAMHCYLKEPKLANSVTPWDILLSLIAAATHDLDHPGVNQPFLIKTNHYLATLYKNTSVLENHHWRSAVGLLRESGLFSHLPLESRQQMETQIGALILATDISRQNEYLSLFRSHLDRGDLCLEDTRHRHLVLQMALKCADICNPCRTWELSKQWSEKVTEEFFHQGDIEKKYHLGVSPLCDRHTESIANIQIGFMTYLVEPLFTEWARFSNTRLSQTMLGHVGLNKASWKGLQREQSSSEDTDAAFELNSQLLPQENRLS
Protocol: as §1, §2

[5] = target: other members of the PDE family (Homo sapiens, UniProt Q14432); experiment: as above; type: biochemical; details: hPDE3A; read-out: PDE 3A (expressed as pIC50) (converted)
Chain of other members of the PDE family (Homo sapiens, UniProt Q14432) (Q14432 whole entry): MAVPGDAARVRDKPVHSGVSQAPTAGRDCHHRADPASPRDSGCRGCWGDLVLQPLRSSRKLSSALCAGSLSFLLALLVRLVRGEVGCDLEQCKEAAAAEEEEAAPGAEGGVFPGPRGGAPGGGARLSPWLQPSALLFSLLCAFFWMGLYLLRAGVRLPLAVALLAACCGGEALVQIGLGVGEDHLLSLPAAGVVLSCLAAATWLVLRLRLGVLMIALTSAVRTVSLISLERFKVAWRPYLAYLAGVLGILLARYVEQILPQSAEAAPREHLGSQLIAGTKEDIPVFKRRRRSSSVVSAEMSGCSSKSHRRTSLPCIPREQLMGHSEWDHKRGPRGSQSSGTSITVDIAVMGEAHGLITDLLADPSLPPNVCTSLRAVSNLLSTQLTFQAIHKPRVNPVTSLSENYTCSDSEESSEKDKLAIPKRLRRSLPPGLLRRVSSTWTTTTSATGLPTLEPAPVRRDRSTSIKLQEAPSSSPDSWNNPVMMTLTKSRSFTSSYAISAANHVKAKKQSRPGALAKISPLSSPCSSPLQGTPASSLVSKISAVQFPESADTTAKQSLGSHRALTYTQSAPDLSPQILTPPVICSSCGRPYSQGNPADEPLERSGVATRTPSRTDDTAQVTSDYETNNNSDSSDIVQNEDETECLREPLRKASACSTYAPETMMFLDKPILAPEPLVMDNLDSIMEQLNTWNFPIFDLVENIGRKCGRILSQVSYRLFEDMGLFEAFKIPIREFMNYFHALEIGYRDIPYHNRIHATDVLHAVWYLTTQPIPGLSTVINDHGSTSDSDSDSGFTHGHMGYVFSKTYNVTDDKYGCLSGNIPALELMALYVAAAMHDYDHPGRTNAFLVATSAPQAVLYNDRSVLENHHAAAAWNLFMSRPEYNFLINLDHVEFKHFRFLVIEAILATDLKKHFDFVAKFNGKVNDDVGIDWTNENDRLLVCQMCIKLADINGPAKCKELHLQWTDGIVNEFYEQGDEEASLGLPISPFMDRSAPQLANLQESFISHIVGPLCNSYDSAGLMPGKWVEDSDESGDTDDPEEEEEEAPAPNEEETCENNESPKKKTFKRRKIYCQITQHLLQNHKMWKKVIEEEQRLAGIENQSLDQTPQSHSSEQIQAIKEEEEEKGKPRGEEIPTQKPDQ
Protocol: as §1, §2

[6] = target: other members of the PDE family (Homo sapiens, UniProt Q9HCR9); experiment: as above; type: biochemical; details: hPDE11A4; read-out: PDE 11A4 (expressed as pIC50) (converted)
Chain of other members of the PDE family (Homo sapiens, UniProt Q9HCR9) (Q9HCR9 whole entry): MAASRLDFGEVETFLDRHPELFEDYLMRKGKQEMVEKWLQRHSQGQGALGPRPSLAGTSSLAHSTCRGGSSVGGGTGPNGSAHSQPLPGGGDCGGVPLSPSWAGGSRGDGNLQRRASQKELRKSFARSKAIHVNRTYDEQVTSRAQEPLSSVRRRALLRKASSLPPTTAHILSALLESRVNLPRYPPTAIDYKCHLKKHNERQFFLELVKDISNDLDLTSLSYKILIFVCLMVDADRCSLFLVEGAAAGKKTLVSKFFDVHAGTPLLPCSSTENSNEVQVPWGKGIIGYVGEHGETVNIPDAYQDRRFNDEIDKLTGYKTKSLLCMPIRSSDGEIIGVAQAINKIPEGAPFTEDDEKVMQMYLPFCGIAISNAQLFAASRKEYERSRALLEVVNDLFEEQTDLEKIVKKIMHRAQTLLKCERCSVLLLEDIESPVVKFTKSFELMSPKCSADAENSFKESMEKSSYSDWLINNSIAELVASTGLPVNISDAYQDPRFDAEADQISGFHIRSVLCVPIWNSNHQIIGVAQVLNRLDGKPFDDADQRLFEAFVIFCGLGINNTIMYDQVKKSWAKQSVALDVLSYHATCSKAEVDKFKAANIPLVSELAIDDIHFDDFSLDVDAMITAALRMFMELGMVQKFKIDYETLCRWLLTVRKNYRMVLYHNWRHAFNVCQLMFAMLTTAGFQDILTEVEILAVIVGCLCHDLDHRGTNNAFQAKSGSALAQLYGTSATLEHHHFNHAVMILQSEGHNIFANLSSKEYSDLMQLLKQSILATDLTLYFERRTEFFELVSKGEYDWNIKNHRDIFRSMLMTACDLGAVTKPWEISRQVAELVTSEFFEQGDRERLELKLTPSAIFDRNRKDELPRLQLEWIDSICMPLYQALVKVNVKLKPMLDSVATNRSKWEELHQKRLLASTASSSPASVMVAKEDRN
Protocol: as §1, §2

[7] = test system: apomorphine-induced stereotypy in rats; experiment: Apomorphine-induced stereotypy in rats (APO); type: in vivo; details: Rattus norvegicus, ≧: active in 30% of the animals at the indicated dose, ≦: active in 60%
Protocol: Apomorphine (1.0 mg/kg, i.v.)-induced stereotypy (compulsive sniffing, licking, chewing) was scored every 5 min over the first hour after injection of apomorphine, following a 1 hour interval pre-treatment with the test compound. The score system was: (3) pronounced, (2) moderate, (1) slight, and (0) absent.

PDE10 = target: T2, PDE10 (Rattus norvegicus, UniProt Q9QYJ6); experiment: PDE10 occupancy ([3H]-MP-10, striatum); type: in vivo; details: rat, single dose 10 mg/kg
T2 construct: from tissue; host or cells: rat brain sections, striatum (in vivo dosing, ex vivo autoradiography)
T2 sequence (Q9QYJ6 1-794): T1 sequence (Q9QYJ6 1-794)
Protocol: Dose-response or single dose experiments were performed to measure PDE10 occupancy 1 hour after subcutaneous (s.c.) or oral (p.o.) administration. Male Wistar rats (200 g) were treated by s.c. or p.o. administration of various PDE10 inhibitors. The PDE10 radioligand [^3H]-MP-10 (10 μCi/animal) was injected intravenously (i.v.) 30 minutes before sacrifice. Brains were immediately removed from the skull and rapidly frozen. Twenty μm-thick brain sections were cut using a cryostat-microtome, thaw-mounted on microscope slides and loaded in a β-imager to quantify PDE10 occupancy in the striatum.

[8] = Table 4 in vitro selectivity, read-out: PDE 10A2 (expressed as pIC50) (converted)
[9] = pIC50 corresponds to the −log IC50 expressed in mol/L, read-out: PDE10A2 pIC50 (converted)
[10] = dose at which 50% of the tested animals show the effect
[11] = po, * compound not soluble, tested orally as a suspension

SMILES | IC50 [1, 8] | IC50 [1, 9] | IC50 (PDE4D3) | IC50 (PDE5A3) | IC50 [2] | IC50 [3] | IC50 [4] | IC50 [5] | IC50 [6] | ED50 [7, 10] | receptor occupancy at 10 mg/kg (PDE10; sc, subcutaneous, read-out: SD sc % occupancy at 10 mg/kg) | ED50 [7, 11] | receptor occupancy at 10 mg/kg (PDE10; oral, read-out: SD po % occupancy at 10 mg/kg)
COCCc1ccc(-c2c(C3CC3)nc3c(-c4ccncc4)ccnn23)cn1 [compound 10, 2-cyclopropyl-3-[6-(2-methoxyethyl)-3-pyridinyl]-8-(4-pyridinyl)-imidazo[1,2-b]pyridazine] | 0.0115 µM | 0.0115 µM | 1.26 µM | 1.29 µM | 6.61 µM | > 10 µM | > 10 µM | > 10 µM | 1.41 µM | 1.2 mg/kg |  |  | 
COC(C)(C)COc1ccc(-c2c(C)nc3c(N4CCOCC4)ccnn23)cn1 [compound 18, 3-[6-(2-methoxy-2-methylpropoxy)-3-pyridinyl]-2-methyl-8-(4-morpholinyl)-imidazo[,2-b]pyridazine] | 0.17 µM | 0.17 µM | > 10 µM |  | > 10 µM | > 10 µM | > 10 µM | > 10 µM | > 10 µM | 5 mg/kg | 46% |  | 
COC(C)(C)CCc1ccc(-c2c(C)nc3c(N4CCOCC4)ccnn23)cn1 [compound 29, 3-[6-(3-methoxy-3-methylbutyl)-3-pyridinyl]-2-methyl-8-(4-morpholinyl)-imidazo[1,2-b]pyridazine] | 0.0437 µM | 0.0437 µM | > 10 µM | 4.47 µM | 1.2 µM | > 10 µM | > 10 µM | > 10 µM | > 10 µM | ≥ 2.5 mg/kg |  |  | 
Cc1nc2c(N3CCOCC3)ccnn2c1-c1ccc(C(C)C)nc1 [compound 32, 2-methyl-3-[6-(1-methylethyl)-3-pyridinyl]-8-(4-morpholinyl)-imidazo[1,2-b]pyridazine] | 0.0776 µM | 0.0776 µM | > 10 µM | > 10 µM | > 10 µM | > 10 µM | > 10 µM | > 10 µM | > 10 µM | 5 mg/kg |  |  | 
Cc1nc2c(N3CCOCC3)ccnn2c1-c1ccc(C2CC2)nc1 [compound 33, 3-(6-cyclopropyl-3-pyridinyl)-2-methyl-8-(4-morpholinyl)-imidazo[1,2-b]pyridazine] | 0.0776 µM | 0.0776 µM | > 10 µM | > 10 µM | > 10 µM | > 10 µM | > 10 µM | > 10 µM | > 10 µM |  |  | ≥ 2.5 mg/kg | 
Cc1nc2c(N3CCOCC3)ccnn2c1-c1ccnc(N2CCOCC2)c1 [compound 91, 2-methyl-8-(4-morpholinyl)-3-[2-(4-morpholinyl)-4-pyridinyl]-imidazo[1,2-b]pyridazine] | 0.0468 µM | 0.0468 µM | > 10 µM | 8.51 µM | > 10 µM | > 10 µM | > 10 µM | > 10 µM | > 10 µM | 1.2 mg/kg |  |  | 
Cc1nc2c(N3CCOCC3)ccnn2c1-c1cnn(C2CCOCC2)c1 [compound 117, 2-methyl-8-(4-morpholinyl)-3-[1-(tetrahydro-2H-pyran-4-yl)-1H-pyrazol-4-yl]-imidazo[1,2-b]pyridazine] | 0.0977 µM | 0.0977 µM | > 10 µM | > 10 µM | > 10 µM | > 10 µM | > 10 µM | > 10 µM |  |  |  |  | 
Cc1nc2c(N3CCOCC3)ccnn2c1-c1cnn(CC2CC2(F)F)c1 (centres unmarked) [compound 118] | 0.0501 µM | 0.0501 µM | > 10 µM |  | > 10 µM | > 10 µM | > 10 µM | > 10 µM | > 10 µM |  |  | ≤ 10 mg/kg | 4%
COCCn1cc(-c2c(C)nc3c(N4CCOCC4)cc(C)nn23)cn1 [compound 133, 3-[1-(2-methoxyethyl)-1H-pyrazol-4-yl]-2,6-dimethyl-8-(4-morpholinyl)-imidazo[1,2-b]pyridazine] | 0.0955 µM | 0.0955 µM | > 10 µM | 2.4 µM | > 10 µM | > 10 µM | > 10 µM | > 10 µM | > 10 µM | 3.1 mg/kg |  |  | 
COCCn1cc(-c2c(C)nc3c(-c4ccncc4)cc(C)nn23)cn1 [compound 134, 3-[1-(2-methoxyethyl)-1H-pyrazol-4-yl]-2,6-dimethyl-8-(4-pyridinyl)-imidazo[1,2-b]pyridazine] | 0.105 µM | 0.105 µM | 5.5 µM | 0.589 µM | 8.13 µM | > 10 µM | 4.9 µM | > 10 µM | 5.37 µM | 5 mg/kg |  |  | 
Cc1nc2c(N3CCOCC3)cc(Cl)nn2c1-c1cnn(CC(F)(F)F)c1 [compound 146, 6-chloro-2-methyl-8-(4-morpholinyl)-3-[1-(2,2,2-trifluoroethyl)-1H-pyrazol-4-yl]-imidazo[1,2-b]pyridazine] | 0.0525 µM | 0.0525 µM | > 10 µM | 1.91 µM | > 10 µM | > 10 µM | 8.51 µM | > 10 µM | > 10 µM |  |  |  | 
